Test results taken from patent US4219566A, “Phenylglyoxylic acids and derivatives thereof” (Pfizer Inc., priority 1977, dated 1980).

Assays:
[1] = test system: pyruvate dehydrogenase (PDH); assay: Proportion of active pyruvate dehydrogenase (PDHa/PDHt) in hearts of fat-fed rats after dosing in vivo; design: species or system rat; settings: heart of fat-fed rats
Method: (2) increase the proportion of the active form of the enzyme pyruvate dehydrogenase (PDH) in organs of animals (e.g. rats) in vivo; and
The ability of compounds of formula (I) to increase the proportion of the active form of the pyruvate dehydrogenase enzyme may be measured by the following test.
(2) Rats fed on a high fat diet as in test (1) (a), are treated either with placebo or with the compound of formula (I), by subcutaneous or intravenous injection or by oral administration, and at various times after treatment the rat hearts are removed and homogenized, under conditions which minimize changes in the proportion of the pyruvate dehydrogenase enzyme which is present in the active form, as described by Whitehouse and Randle (Biochem. J. 1973, 134, 651). The total amount of the enzyme present (PDHt) and the amount which is present in the active form (PDHa) are assessed by a method similar to that described by Taylor et al (J. Biol. Chem. 1973, 248, 73). The fat-feeding process is found to depress the ratio PDHa/PDHt from a normal value of about 0.7 to a value in the range from 0.05 to 0.2.

[2] = test system: pyruvate oxidation by diaphragm tissue from fat-fed rats; assay: Pyruvate oxidation (14C-pyruvate into CO2) by diaphragm tissue from fat-fed rats in vitro; assay type: cell-based; settings: Rattus norvegicus, read-out: % Stimulation of pyruvate oxidation; for activation at 2000 µM: 2.0 mM compound in medium
Method: (1) increase the oxidation of glucose and/or pyruvate by isolated rat muscle preparation in vitro;
(1) (a) Diaphragm tissue is obtained from rats fed on a high fat diet similar to `Diet B` described by Zaragoza and Felber (Horm. Metab. Res. 1970, 2, 323). Pyruvate oxidation by such tissue is assessed by measurement of the rate of incorporation of carbon-14 carbon-14-labelled pyruvate into carbon dioxide in vitro, as described by Bringolf (Eur. J. Biochem. 1972, 26, 360). The rate of pyruvate oxidation is depressed by 50-75% compared with that by diaphragm tissue from rats fed on a normal diet. When the compounds of the formula (I) are added to the medium, they are found to stimulate pyruvate oxidation by diaphragm tissue from fat-fed rats in a dose dependent manner.
The degree of stimulation by the compounds of the formula (I) at a concentration of 2.0 mM (unless otherwise stated) is shown in the following Table.

[3] = test system: fasted, closed-chest, anesthetized beagle dogs; assay: Myocardial blood flow and metabolism in electrically paced, anesthetized beagle dogs, with or without isoprenaline; assay type: in vivo; settings: 0.02 to 0.1 millimole/kg. intravenously; in the presence and absence of isoprenaline
Excerpt: (3) reduce oxygen demand and affect the relative utilization of carbohydrate and lipid metabolites by the electrically-paced heart of an anesthetized dog in the presence or absence of an isoprenaline stimulus.
The ability of compounds of formula (I) to reduce oxygen demand and affect the relative utilization of carbohydrate and lipid metabolites in the heart may be assessed by measuring the effect of the compounds on myocardial blood flow and metabolism in fasted, closed-chest, anesthetized beagle dogs, with cardiac catheterization to enable simultaneous sampling of coronary sinus and arterial blood to be carried out. Coronary sinus blood flow is measured by the hydrogen gas clearance technique described by Aukland et al (Circulation Res. 1964, 14, 164). The heart is paced electrically at 155 beats/min. and recordings of hemodynamic parameters (blood pressure, left ventricular pressure and the first derivative of the latter) are made continuously. Control measurements of coronary blood flow are made and samples of blood taken at 40 min. intervals, both in an untreated animal and in the same animal dosed with an infusion of isoprenaline ([…].), which both stimulates cardiac contraction and increases plasma free fatty acid levels. The compound of formula (I) is then administered intravenously and measurements are made and samples taken again, 40 minutes and 90 minutes later. The blood samples from the artery and coronary sinus are analyzed for oxyhemoglobin, pyruvate and free fatty acid (FFA) content, differences between those of the arterial and coronary sinus blood, when multiplied by coronary blood flow, being a measure of oxygen consumption, pyruvate uptake and FFA uptake by the myocardium respectively.

[4] = test system: rats in which diabetes has been induced by treatment with streptozotocin; assay: Blood glucose levels in streptozotocin-diabetic rats; assay type: in vivo; settings: averages for 8 animals
Method: (4) decrease blood glucose levels in animals made diabetic by chemical lesion of the pancreas.
The ability of compounds of formula (I) to decrease blood glucose levels may be assessed by measuring their effect on blood glucose levels in rats in which diabetes has been induced by treatment with streptozotocin (85 mg./kg.). Four days after such treatment, a number of rats are given 1 millimole/kg. of the compound by intraperitoneal injection and a similar number are given placebo. The doses are repeated after a further 24 hours and 48 hours. Blood samples are taken from a tail vein immediately before each dosage (which is 2 hours after removal of the animals from food) and 1, 2 and 3 hours after the third dose.

[5] = dose 1.2 mM/kg subcutaneous, 1.5 hours, placebo ratio 0.11-0.24 in the same line

SMILES	PDHa/PDHt ratio at 1.5 hours (Compound) [1, 5]	activation at 2000 µM [2]	further results
Cc1ccc(C(=O)C(=O)O)cc1 [R=CH3, R1=H, R2=OH, p-methylphenylglyoxylic acid]	0.20	71%	–
O=C(O)C(=O)c1ccc(Cl)cc1 [R=Cl, R1=H, R2=OH, p-chlorophenylglyoxylic acid]	–	71%	–
O=C(O)C(=O)c1ccccc1 [R=H, R1=H, R2=OH, phenylglyoxylic acid]	0.38	–	activation at 1000 µM ([2]; at 1mM): 25%
CCOC(=O)C(=O)c1ccc(OCC)cc1 [R=OC2H5, R1=H, R2=OC2H5, ethyl p-ethoxyphenylglyoxylate]	0.35	–	–
CCOc1ccc(C(=O)C(=O)O)cc1 [R=OC2H5, R1=H, R2=OH, p-ethoxyphenylglyoxylic acid]	0.56	91%	–
COc1ccc(C(=O)C(=O)O)cc1Cl [R=OCH3, R1=3-Cl, R2=OH, m-chloro-p-methoxyphenylglyoxylic acid]	0.35	52%	–
COc1ccc(C(=O)C(=O)O)cc1 [R=OCH3, R1=H, R2=OH, p-methoxyphenylglyoxylic acid]	0.49	127%	–
Cc1cc(C(=O)C(=O)O)ccc1O [R=OH, R1=3-CH3, R2=OH, p-hydroxy-m-methylphenylglyoxylic acid]	0.31	21%	–
O=C(O)C(=O)c1ccc(O)c(I)c1 [R=OH, R1=3-I, R2=OH, p-hydroxy-m-iodophenylglyoxylic acid]	–	55%	–
CCOC(=O)C(=O)c1ccc(O)cc1 [R=OH, R1=H, R2=OC2H5, ethyl p-hydroxyphenylglyoxylate]	–	83%	–
CC(C)Sc1ccc(C(=O)C(=O)O)cc1 [R=S . isopropyl, R1=H, R2=OH, p-(isopropylthio)phenylglyoxylic acid]	–	200%	–
CCCCSc1ccc(C(=O)C(=O)O)cc1 [R=S . n-butyl, R1=H, R2=OH, p-(n-butylthio)phenylglyoxylic acid]	–	113%	–
CCSc1ccc(C(=O)C(=O)O)cc1 [R=SC2H5, R1=H, R2=OH, p-(ethylthio)phenylglyoxylic acid]	0.73	158%	–
CC(C)(C)CSc1ccc(C(=O)C(=O)O)cc1 [R=SCH2 . t-butyl, R1=H, R2=OH]	–	67%	–
CSc1ccc(C(=O)C(=O)O)cc1 [R=SCH3, R1=H, R2=OH, p-(methylthio)phenylglyoxylic acid]	–	123%	PDHa/PDHt ratio at 1.5 hours (Compound) ([1]; first of two doses shown only in drawing 5, subcutaneous, placebo 0.20): 0.47; PDHa/PDHt ratio at 1.5 hours (Compound) ([1]; second of two doses shown only in drawing 5, subcutaneous, placebo 0.12): 0.24
O=C(O)C(=O)c1ccc(O)cc1 [p-hydroxyphenylglyoxylic acid]	0.28	104%	duration of increased myocardial pyruvate uptake after dosing [3]: at least 90 minutes; myocardial blood flow [3]: increased; myocardial oxygen consumption [3]: decreased; myocardial pyruvate uptake [3]: increases myocardial pyruvate uptake; blood glucose level ([4]; 3 hours after the third dose, 1 millimole/kg. intraperitoneal, placebo 369±9): 344±9 mg./100 ml.; blood glucose level ([4]; after 2 days of treatment, immediately before third dose, 1 millimole/kg. intraperitoneal daily, baseline 376±6, placebo 383±10): 358±9 mg./100 ml.
